Experimental data taken from patent US11767310B2, “Nicotinamide RIPK1 inhibitors” (AbbVie Inc., priority 2021, dated 2023).

Key:
RIPK1 = RIPK1 (Homo sapiens (Human), UniProt Q13546); test: RIPK1 Binding Assay; conditions: displacement of fluorescent probe, TR-FRET
Experimental: Compounds were tested for their ability to displace a fluorescent probe from recombinant human RIPK1.
Recombinant human RIPK1 (1-375) was prepared as described in Harris et al., ACS Med. Chem. Letters (2013) 4:1238-1243 (Supplementary Information), with the following exceptions: (i) instead of using the gene sequence from NM_003804.3, the gene was synthesized with codon optimization for BEV expression system, and (ii) the gene was cloned into the vector pFastBac1, not pDEST8.
A fluorescent probe containing an Oregon green fluorophore was synthesized from a compound known to bind to RIPK1.
The assay was performed in a buffer containing 50 mM N-2-Hydroxyethylpiperazine-N′-2-ethanesulfonic acid (HEPES) (pH 7.5), 10 mM MgCl2, 1 mM ethylene diamine tetraacetic acid (EDTA), and 0.01% BRIJ-35 (Polyoxyethylene (23) lauryl ether). Test compounds were solvated in dimethyl sulfoxide (DMSO) at final concentrations 4-fold serially diluted from 100 to 0.000095 uM in technical duplicates into an empty 384 well plate. Recombinant RIPK1 (final concentration of 2.5 nM) was added to the wells and incubated with test compound for 1 hour at room temperature. A solution containing the fluorescent probe (final concentration 5 nM) and an LanthaScreen Tb-anti-GST antibody (Thermofisher Scientific; final concentration of 5 nM) was then added to each well, with the Tb-anti-GST antibody binding to the GST portion of the recombinant RIPK1 and providing the corresponding FRET pair to the fluorescent probe. The plate was incubated for 1 hour at room temperature and read on an Envision plate reader using a time resolved FRET protocol. Data was normalized and analyzed using Studies from Dotmatics.

U937 cells = test: U937 TNF/zVAD Cytotoxicity Cell Assay; type: cell-based; conditions: Homo sapiens, U-937; TNFα 10 ng/mL + Z-VAD FMK 20 μM, 16-20 hours; read-out: U937 TNF/zVAD Induced Cytotoxicity IC50
Experimental: Compounds were tested for their ability to prevent TNF induced necroptosis in U937 cells. Treatment with TNF and the caspase inhibitor zVAD-FMK results in the activation and phosphorylation of RIPK1 and subsequent phosphorylation of RIPK3 and MLKL (Mixed Lineage Kinase Domain Like Pseudokinase), leading to induction of necroptotic cell death that is measured as a reduction in cell viability. Similar U937 assay protocols have been previously described; see, e.g., Harris et al., ACS Med. Chem. Letters (2013) 4:1238-1243 and Supplementary Information.
Test compounds were solvated in dimethyl sulfoxide (DMSO) and 3-fold serially diluted from 10 uM to 0.0005 uM with technical duplicates into an empty 384 well plate. U937 cells were resuspended at a concentration of 500,000 cells/mL in fresh RPMI (Roswell Park Memorial Institute) 1640 growth medium containing 10% heat inactivated fetal bovine serum (FB1S) and seeded into a 384 well plate containing compounds and incubated for 1 hour at 37° C. Following incubation, the cells were challenged with TNFα (final concentration of 10 ng/mL) and Z-VAD FMK (N-Benzyloxycarbonyl-Val-Ala-Asp(O-Me) fluoromethyl ketone; final concentration of 20 μM) for 16-20 hours at 37° C. Following the incubation with TNFα/Z-VAD, cells were lysed with Cell Titer-Glo and incubated for 5-10 minutes. The plate was then read on an Envision plate reader. Data was normalized and analyzed with Studies from Dotmatics.

RIPK1, sequence (Q13546 1-375): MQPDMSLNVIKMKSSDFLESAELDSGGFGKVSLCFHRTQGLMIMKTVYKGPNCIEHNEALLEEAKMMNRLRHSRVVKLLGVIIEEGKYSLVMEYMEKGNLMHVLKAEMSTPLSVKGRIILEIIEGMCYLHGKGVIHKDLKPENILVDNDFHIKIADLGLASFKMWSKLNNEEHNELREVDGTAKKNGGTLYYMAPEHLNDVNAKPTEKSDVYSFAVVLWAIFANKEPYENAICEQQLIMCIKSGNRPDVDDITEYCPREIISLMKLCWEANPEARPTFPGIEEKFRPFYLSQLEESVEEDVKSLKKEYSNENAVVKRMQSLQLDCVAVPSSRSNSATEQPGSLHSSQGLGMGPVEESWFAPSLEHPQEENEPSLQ

SMILES	IC50 (RIPK1)	IC50 (U937 cells)
CN(C[C@@H](O)Cc1ccccc1)C(=O)c1cncc(C#Cc2cnn(C3CCC3)c2)c1 [Example 6, (S)-5-((1-cyclobutyl-1H-pyrazol-4-yl)ethynyl)-N-(2-hydroxy-3-phenylpropyl)-N-methylnicotinamide]	3 nM	6 nM
CN(C[C@@H](O)Cc1ccccc1)C(=O)c1cncc(C#Cc2cnn3c2COCC3)c1 [Example 8, (S)-5-((6,7-Dihydro-4H-pyrazolo[5,1-c][1,4]oxazin-3-yl)ethynyl)-N-(2-hydroxy-3-phenylpropyl)-N-methylnicotinamide]	6 nM	13 nM
CN(C[C@@H](O)Cc1cccc(F)c1)C(=O)c1cncc(C#Cc2cnn(C)c2)c1 [Example 12, (S)-N-(3-(3-fluorophenyl)-2-hydroxypropyl)-N-methyl-5-((1-methyl-1H-pyrazol-4-yl)ethynyl)nicotinamide]	13 nM	20 nM
CN(C[C@@H](O)Cc1ccccc1)C(=O)c1cncc(C#Cc2cnn(C3CC3)c2)c1 [Example 5, (S)-5-((1-cyclopropyl-1H-pyrazol-4-yl)ethynyl)-N-(2-hydroxy-3-phenylpropyl)-N-methylnicotinamide]	14 nM	49 nM
CN(C[C@@H](O)Cc1ccccc1)C(=O)c1cncc(C#Cc2cnn(C)n2)c1 [Example 3, (S)-N-(2-hydroxy-3-phenylpropyl)-N-methyl-5-((2-methyl-2H-1,2,3-triazol-4-yl)ethynyl)nicotinamide]	36 nM	196 nM
CN(C[C@@H](O)Cc1ccccc1)C(=O)c1cncc(C#Cc2cnn(C)c2C2CC2)c1 [Example 11, (S)-5-((5-cyclopropyl-1-methyl-1H-pyrazol-4-yl)ethynyl)-N-(2-hydroxy-3-phenylpropyl)-N-methylnicotinamide]	2 nM	5 nM
Cc1ncc(C#Cc2cncc(C(=O)N(C)C[C@@H](O)Cc3ccccc3)c2)s1 [Example 15, (S)-N-(2-hydroxy-3-phenylpropyl)-N-methyl-5-((2-methylthiazol-5-yl)ethynyl) nicotinamide]	25000 nM	
CN(C[C@@H](O)[C@@H](F)c1ccccc1)C(=O)c1cncc(C#Cc2cnn(C)c2)c1 [Example 7, N-((2R,3S)-3-fluoro-2-hydroxy-3-phenylpropyl)-N-methyl-5-((1-methyl-1H-pyrazol-4-yl)ethynyl)nicotinamide]	7 nM	9 nM
COc1ncc(C(=O)N(C)C[C@@H](O)Cc2ccccc2)cc1C#Cc1cnn(C)c1 [Example 13, (S)-N-(2-hydroxy-3-phenylpropyl)-6-methoxy-N-methyl-5-((1-methyl-1H-pyrazol-4-yl)ethynyl)nicotinamide]	95 nM	382 nM
CN(C[C@@H](O)Cc1ccccc1)C(=O)c1cncc(C#Cc2cnn(C3COC3)n2)c1 [Example 10, (S)-N-(2-hydroxy-3-phenylpropyl)-N-methyl-5-((2-(oxetan-3-yl)-2H-1,2,3-triazol-4-yl)ethynyl)nicotinamide]	43 nM	380 nM
Cc1c(C#Cc2cncc(C(=O)N(C)C[C@@H](O)Cc3ccccc3)c2)cnn1C(F)F [Example 26, (S)-5-((1-(difluoromethyl)-5-methyl-1H-pyrazol-4-yl)ethynyl)-N-(2-hydroxy-3-phenylpropyl)-N-methylnicotinamide]	1.8 nM	3 nM
CN(C[C@@H](O)Cc1ccccc1)C(=O)c1cncc(C#Cc2cnn(C(F)(F)F)c2)c1 [Example 4, (S)-N-(2-hydroxy-3-phenylpropyl)-N-methyl-5-((1-(trifluoromethyl)-1H-pyrazol-4-yl)ethynyl)nicotinamide]	30 nM	199 nM
Cc1ncc(C#Cc2cncc(C(=O)N(C)C[C@@H](O)Cc3ccccc3)c2)o1 [Example 17, (S)-N-(2-hydroxy-3-phenylpropyl)-N-methyl-5-((2-methyloxazol-5-yl)ethynyl)nicotinamide]	32 nM	146 nM
CN(CC(O)Cc1ccccc1)C(=O)c1cnc(C(F)F)c(C#Cc2cnn(C)c2)c1 (stereo in doubt) [Example 9, (S)-6-(difluoromethyl)-N-(2-hydroxy-3-phenylpropyl)-N-methyl-5-((1-methyl-1H-pyrazol-4-yl)ethynyl)nicotinamide]	18 nM	29 nM
